From PubChem BioAssay (NCI)
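Five concentrations, 48 hours, 96-well plates. Definition used: TGI = concentration required for complete inhibition of growth.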

Key:
Assay in all cases: NCI-60 cell line screen, 48 h
K-562 leukemia = tested on: K-562 leukemia
NCI-H23 lung = tested on: NCI-H23 lung
CAKI-1 renal = tested on: CAKI-1 renal
U251 CNS = tested on: U251 CNS
RXF 393 renal = tested on: RXF 393 renal
DMS 273 small cell lung = tested on: DMS 273 small cell lung
OVCAR-8 ovarian = tested on: OVCAR-8 ovarian
SN12C renal = tested on: SN12C renal
DMS 114 small cell lung = tested on: DMS 114 small cell lung
HOP-92 NSCLC = tested on: HOP-92 NSCLC
SNB-78 CNS = tested on: SNB-78 CNS
DLD-1 colon = tested on: DLD-1 colon
HOP-62 NSCLC = tested on: HOP-62 NSCLC
IGROV1 ovarian = tested on: IGROV1 ovarian
HCC-2998 colon = tested on: HCC-2998 colon
EKVX NSCLC = tested on: EKVX NSCLC
COLO 205 colon = tested on: COLO 205 colon
HT29 colon = tested on: HT29 colon
OVCAR-4 ovarian = tested on: OVCAR-4 ovarian
A549 NSCLC = tested on: A549 NSCLC
SK-MEL-28 melanoma = tested on: SK-MEL-28 melanoma
LOX IMVI melanoma = tested on: LOX IMVI melanoma
KM20L2 colon = tested on: KM20L2 colon
SF-268 CNS = tested on: SF-268 CNS
UO-31 renal = tested on: UO-31 renal
M19-MEL melanoma = tested on: M19-MEL melanoma
HL-60(TB) leukemia = tested on: HL-60(TB) leukemia
786-0 renal = tested on: 786-0 renal
SW-620 colon = tested on: SW-620 colon
MALME-3M melanoma = tested on: MALME-3M melanoma
XF 498 CNS = tested on: XF 498 CNS
M14 melanoma = tested on: M14 melanoma
SF-295 CNS = tested on: SF-295 CNS
OVCAR-3 ovarian = tested on: OVCAR-3 ovarian
UACC-62 melanoma = tested on: UACC-62 melanoma
ACHN renal = tested on: ACHN renal
LXFL 529 NSCLC = tested on: LXFL 529 NSCLC
HCT-15 colon = tested on: HCT-15 colon
TK-10 renal = tested on: TK-10 renal
NCI-H460 lung = tested on: NCI-H460 lung
RXF-631 renal = tested on: RXF-631 renal
HOP-18 NSCLC = tested on: HOP-18 NSCLC
SNB-19 CNS = tested on: SNB-19 CNS
SK-OV-3 ovarian = tested on: SK-OV-3 ovarian
NCI-H226 lung = tested on: NCI-H226 lung
UACC-257 melanoma = tested on: UACC-257 melanoma
KM12 colon = tested on: KM12 colon
NCI-H522 lung = tested on: NCI-H522 lung
SNB-75 CNS = tested on: SNB-75 CNS
SR leukemia = tested on: SR leukemia
MOLT-4 leukemia = tested on: MOLT-4 leukemia
CCRF-CEM leukemia = tested on: CCRF-CEM leukemia
SK-MEL-5 melanoma = tested on: SK-MEL-5 melanoma
SF-539 CNS = tested on: SF-539 CNS
OVCAR-5 ovarian = tested on: OVCAR-5 ovarian
RPMI-8226 leukemia = tested on: RPMI-8226 leukemia
A498 renal = tested on: A498 renal
SK-MEL-2 melanoma = tested on: SK-MEL-2 melanoma
HCT-116 colon = tested on: HCT-116 colon

Sc1ccccc1S
TGI (K-562 leukemia): > 100 µM | TGI (NCI-H23 lung): > 100 µM | TGI (CAKI-1 renal): > 100 µM | TGI (U251 CNS): > 100 µM | TGI (RXF 393 renal): > 100 µM | TGI (DMS 273 small cell lung): > 100 µM | TGI (OVCAR-8 ovarian): > 10 µM | TGI (SN12C renal): > 100 µM | TGI (DMS 114 small cell lung): > 100 µM | TGI (HOP-92 NSCLC): > 100 µM | TGI (SNB-78 CNS): > 100 µM | TGI (DLD-1 colon): > 100 µM | TGI (HOP-62 NSCLC): > 100 µM | TGI (IGROV1 ovarian): > 100 µM | TGI (HCC-2998 colon): > 100 µM | TGI (EKVX NSCLC): > 10 µM | TGI (COLO 205 colon): > 100 µM | TGI (HT29 colon): > 100 µM | TGI (OVCAR-4 ovarian): > 100 µM | TGI (A549 NSCLC): > 100 µM | TGI (SK-MEL-28 melanoma): > 100 µM | TGI (LOX IMVI melanoma): > 100 µM | TGI (KM20L2 colon): > 100 µM | TGI (SF-268 CNS): > 100 µM | TGI (UO-31 renal): > 10 µM | TGI (M19-MEL melanoma): > 100 µM | TGI (HL-60(TB) leukemia): > 100 µM | TGI (786-0 renal): > 100 µM | TGI (SW-620 colon): > 100 µM | TGI (MALME-3M melanoma): > 100 µM | TGI (XF 498 CNS): > 100 µM | TGI (M14 melanoma): > 100 µM | TGI (SF-295 CNS): > 100 µM | TGI (OVCAR-3 ovarian): > 100 µM | TGI (UACC-62 melanoma): > 100 µM | TGI (ACHN renal): > 100 µM | TGI (LXFL 529 NSCLC): > 100 µM | TGI (HCT-15 colon): > 100 µM | TGI (TK-10 renal): > 10 µM | TGI (NCI-H460 lung): > 100 µM | TGI (RXF-631 renal): > 100 µM | TGI (HOP-18 NSCLC): > 100 µM | TGI (SNB-19 CNS): > 100 µM | TGI (SK-OV-3 ovarian): > 100 µM

CCOC(=O)c1csc(CCCCCCc2nc(C(=O)OCC)cs2)n1
TGI (K-562 leukemia): > 62 µM | TGI (NCI-H23 lung): 99.7 µM | TGI (NCI-H226 lung): 97.5 µM | TGI (CAKI-1 renal): > 100 µM | TGI (U251 CNS): > 59.6 µM | TGI (RXF 393 renal): 64 µM | TGI (UACC-257 melanoma): 96.9 µM | TGI (DMS 273 small cell lung): > 100 µM | TGI (OVCAR-8 ovarian): > 87.2 µM | TGI (KM12 colon): > 100 µM | TGI (SN12C renal): > 100 µM | TGI (HOP-92 NSCLC): > 100 µM | TGI (SNB-78 CNS): > 100 µM | TGI (DLD-1 colon): > 100 µM | TGI (HOP-62 NSCLC): > 89.1 µM | TGI (IGROV1 ovarian): > 100 µM | TGI (HCC-2998 colon): > 100 µM | TGI (EKVX NSCLC): > 100 µM | TGI (COLO 205 colon): 98.1 µM | TGI (NCI-H522 lung): > 100 µM | TGI (HT29 colon): > 100 µM | TGI (SNB-75 CNS): 70.4 µM | TGI (OVCAR-4 ovarian): > 100 µM | TGI (SR leukemia): > 100 µM | TGI (A549 NSCLC): > 66.5 µM | TGI (SK-MEL-28 melanoma): > 83.8 µM | TGI (LOX IMVI melanoma): > 54.5 µM | TGI (KM20L2 colon): > 100 µM | TGI (SF-268 CNS): > 100 µM | TGI (MOLT-4 leukemia): > 100 µM | TGI (CCRF-CEM leukemia): > 63.9 µM | TGI (UO-31 renal): > 100 µM | TGI (M19-MEL melanoma): 57.5 µM | TGI (HL-60(TB) leukemia): > 65.4 µM | TGI (786-0 renal): > 56.7 µM | TGI (SW-620 colon): > 65.4 µM | TGI (SK-MEL-5 melanoma): > 100 µM | TGI (MALME-3M melanoma): > 100 µM | TGI (SF-539 CNS): > 88 µM | TGI (XF 498 CNS): 86.3 µM | TGI (M14 melanoma): > 100 µM | TGI (SF-295 CNS): > 100 µM | TGI (OVCAR-3 ovarian): > 100 µM | TGI (OVCAR-5 ovarian): > 100 µM | TGI (UACC-62 melanoma): > 100 µM | TGI (ACHN renal): > 100 µM | TGI (RPMI-8226 leukemia): > 69.2 µM | TGI (LXFL 529 NSCLC): > 100 µM | TGI (HCT-15 colon): > 100 µM | TGI (TK-10 renal): > 100 µM | TGI (NCI-H460 lung): > 57.7 µM | TGI (A498 renal): > 100 µM | TGI (RXF-631 renal): > 100 µM | TGI (HOP-18 NSCLC): > 100 µM | TGI (SNB-19 CNS): > 100 µM | TGI (SK-MEL-2 melanoma): > 100 µM | TGI (HCT-116 colon): > 52.3 µM | TGI (SK-OV-3 ovarian): > 100 µM

COc1ccc2c(c1)C1C(CO2)C(c2ccccc2)=NN1c1ccccc1 (configuration not stated)
TGI (K-562 leukemia): > 100 µM | TGI (NCI-H23 lung): > 100 µM | TGI (U251 CNS): > 100 µM | TGI (RXF 393 renal): > 100 µM | TGI (UACC-257 melanoma): > 100 µM | TGI (DMS 273 small cell lung): > 100 µM | TGI (OVCAR-8 ovarian): > 100 µM | TGI (KM12 colon): > 100 µM | TGI (DMS 114 small cell lung): > 100 µM | TGI (HOP-92 NSCLC): > 100 µM | TGI (SNB-78 CNS): > 100 µM | TGI (DLD-1 colon): > 100 µM | TGI (HOP-62 NSCLC): > 100 µM | TGI (IGROV1 ovarian): > 100 µM | TGI (HCC-2998 colon): > 100 µM | TGI (EKVX NSCLC): > 100 µM | TGI (COLO 205 colon): > 100 µM | TGI (NCI-H522 lung): > 100 µM | TGI (HT29 colon): > 100 µM | TGI (SNB-75 CNS): 9.67 µM | TGI (A549 NSCLC): > 100 µM | TGI (SK-MEL-28 melanoma): > 100 µM | TGI (LOX IMVI melanoma): > 100 µM | TGI (KM20L2 colon): > 100 µM | TGI (SF-268 CNS): > 100 µM | TGI (MOLT-4 leukemia): > 100 µM | TGI (CCRF-CEM leukemia): > 100 µM | TGI (UO-31 renal): > 100 µM | TGI (M19-MEL melanoma): > 100 µM | TGI (HL-60(TB) leukemia): > 100 µM | TGI (786-0 renal): > 100 µM | TGI (SW-620 colon): > 100 µM | TGI (SK-MEL-5 melanoma): > 100 µM | TGI (MALME-3M melanoma): > 100 µM | TGI (SF-539 CNS): > 100 µM | TGI (XF 498 CNS): > 100 µM | TGI (SF-295 CNS): > 100 µM | TGI (OVCAR-3 ovarian): > 100 µM | TGI (OVCAR-5 ovarian): > 100 µM | TGI (ACHN renal): > 100 µM | TGI (RPMI-8226 leukemia): > 100 µM | TGI (LXFL 529 NSCLC): > 100 µM | TGI (TK-10 renal): > 100 µM | TGI (NCI-H460 lung): > 100 µM | TGI (A498 renal): > 100 µM | TGI (RXF-631 renal): > 100 µM | TGI (HOP-18 NSCLC): > 100 µM | TGI (SK-MEL-2 melanoma): > 100 µM | TGI (HCT-116 colon): > 100 µM | TGI (SK-OV-3 ovarian): > 100 µM
